# Measurements from patent US6406708B1, “Therapeutic compositions” (Interhealth AB, priority 1998, dated 2002).
# Conditions: 0.15% of sorbic acid in squalane/cyclodextrin composition
structure (smiles),measurement,value
C/C=C/C=C/C(=O)O [sorbic acid],anti-acne effect,does not give any anti-acne effect
